According to article PMC8268887, “Peptide/β-Peptoid Hybrids with Ultrashort PEG-Like Moieties: Effects on Hydrophobicity, Antibacterial Activity and Hemolytic Properties” (International Journal of Molecular Sciences, 2021):
≈ marks a conversion by molar mass, not a printed value.

Key:
[1] = Hydrophobicity by retention in analytical RP-HPLC (% MeCN at peak elution); format: physicochemical; details: for % MeCN at Elution, Aeris Peptide: Phenomenex Aeris Peptide XB-C18 column; for % MeCN at Elution, Aeris Peptide / % MeCN at Elution, Luna Omega / % MeCN at Elution, Supelco Discovery: gradient 0→60% B during 15 min; for % MeCN at Elution, Luna: Phenomenex Luna C18(2) column, RP-HPLC gradient 0→60% B during 15 min, relative hydrophobicity; for % MeCN at Elution, Luna Omega: Phenomenex Luna Omega Polar C18 column; for % MeCN at Elution, Supelco Discovery: Supelco Discovery BIO Wide pore C18 column
Method in brief: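 Retention times measured on four C18 columns (Luna C18(2), Luna Omega Polar C18, Aeris Peptide XB-C18, Discovery BIO Wide pore) with MeCN–H2O/0.1% TFA, linear 0–60% B over 15 min, 0.8 mL/min, UV 220 nm. % MeCN at elution = 0.95(0.6Rt/15 min)+0.05(1−0.6Rt/15 min).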

[2] = tested on: P. aeruginosa NMI 7197/19; format: cell-based, Pseudomonas aeruginosa; details: NMI 7197/19, 20 h
Method in brief: (§1)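 MIC, broth microdilution; MHB + 4 mg/L Mg^2+/Ca^2+; inoculum ~5 × 10^5 CFU/mL; cpd in 0.01% AcOH/0.2% BSA final; 20 h, 35 °C (±2 °C), 180 rpm shaking.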

P. aeruginosa PAO1 = format: cell-based, Pseudomonas aeruginosa; details: PAO1, 20 h
Method in brief: as §1

A. baumannii ATCC 19606 = format: cell-based, Acinetobacter baumannii; details: ATCC 19606, 20 h
Method in brief: as §1

A. baumannii NMI 3658/17 = format: cell-based, Acinetobacter baumannii; details: NMI 3658/17, 20 h
Method in brief: as §1

S. aureus ATCC 29213 = format: cell-based, Staphylococcus aureus; details: ATCC 29213, 20 h
Method in brief: as §1

[3] = Determination of hemolytic activity; format: cell-based; details: red blood cell suspension in PBS buffer, human red blood cells at 400 µg/mL, 37 °C
Method in brief: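 Fresh human RBCs, PBS-washed, used as 1% suspension with compound at 400 μg/mL final for 60 min at 37 °C with mild agitation, triplicate wells. Released hemoglobin read at OD 405 nm in supernatant; % hemolysis normalized to 1% SDS (100%) and PBS (0%), averages reported.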

[4] = Antiproliferative activity on HepG2 cell line (MTT assay); format: cell-based; details: HepG2 cells; at 1280 µg/mL, value in parenthesis; read-out: HepG2 cell viability at highest concentration tested
Method: (§2) Effect of compounds on mammalian cell viability was estimated on the HepG2 cell line ATCC HB-8065. In brief, HepG2 cells were seeded into flat-bottomed 96-well plates at a concentration of 5000 cells per well. Subsequently, the cells were incubated for 24 h in a humidified incubator (5% CO2, 37 °C). Then, the medium was removed, and the cells were incubated for 48 h in a humidified incubator (5% CO2, 37 °C) with peptidomimetics in serial dilutions. Then, an 3-(4,5-dimethylthiazol-2-yl)-2,5-diphenyltetrazolium bromide (MTT) assay was performed as previously described. In brief, after incubation with the test compounds, the culture medium was removed, and then fresh medium with 0.2 mg/mL MTT was added into each well of the plate. The cells were then incubated (3 h, 37 °C, 5% CO2), followed by removal of the medium with MTT and addition of 200 μL dimethyl sulfoxide at once to each sample. Absorbance of MTT was measured using the spectrophotometer TECAN Infinite M1000 at 540 nm. The relative viability was calculated by using the formula: ODtreated cells × 100/ODcontrol cells. The IC50 values are calculated by using the program Graph Pad Prism® 5.0. For all compounds, the test range was 10–1280 μg/mL.

[5] = tested on: HepG2 cell line ATCC HB-8065; experiment: as above; format: cell-based; details: inhibition of growth of HepG2 cells, 48 h, MTT; highest concentration tested 1280 µg/mL
Method: as §2

Structure (SMILES) | % MeCN at Elution, Aeris Peptide [1] [% MeCN] | % MeCN at Elution, Luna [1] [% MeCN] | % MeCN at Elution, Luna Omega [1] [% MeCN] | % MeCN at Elution, Supelco Discovery [1] [% MeCN] | MIC, P. aeruginosa NMI 7197/19 [2] [µg/mL] | MIC, PA (P. aeruginosa PAO1) [µg/mL] | MIC, AB (A. baumannii ATCC 19606) [µg/mL] | MIC, A. baumannii NMI 3658/17 (A. baumannii NMI 3658/17) [µg/mL] | MIC, SA (S. aureus ATCC 29213) [µg/mL] | hemolysis at 60 min [3] [%] | viability at 48 h [4] [%] | HepG2 IC50 [5] [µg/mL]
NCCCC[C@H](NC(=O)CCN(Cc1ccc(F)cc1)C(=O)[C@H](CCCCN)NC(=O)CCN(Cc1ccc(F)cc1)C(=O)[C@H](CCCCN)NC(=O)COCCOCCN)C(=O)N(CCC(=O)NCCOCCOCC(=O)N[C@@H](CCCCN)C(=O)N(CCC(=O)N[C@@H](CCCCN)C(=O)N(CCC(=O)N[C@@H](CCCCN)C(=O)N(CCC(=O)NCCOCCOCC(N)=O)Cc1ccc(F)cc1)Cc1ccc(F)cc1)Cc1ccc(F)cc1)Cc1ccc(F)cc1 [Compound 12, H-sPEG2-[X]3-sPEG2-[X]3-sPEG2-NH2] | 39.2 | 41.3 | 42.0 | 41.3 | >64 | 16 to 64 | 8 to 16 | 16 (≈ 6.97 µM) | >64 | 8.1 | 34 | 332
NCCCC[C@H](NC(=O)CCN(Cc1ccc(F)cc1)C(=O)[C@H](CCCCN)NC(=O)CCN(Cc1ccc(F)cc1)C(=O)[C@H](CCCCN)NC(=O)CCOCCOCCOCCOCCN)C(=O)N(CCC(=O)NCCOCCOCCOCCOCCC(=O)N[C@@H](CCCCN)C(=O)N(CCC(=O)N[C@@H](CCCCN)C(=O)N(CCC(=O)N[C@@H](CCCCN)C(=O)N(CCC(=O)NCCOCCOCCOCCOCCC(N)=O)Cc1ccc(F)cc1)Cc1ccc(F)cc1)Cc1ccc(F)cc1)Cc1ccc(F)cc1 [Compound 14, H-sPEG4-[X]3-sPEG4-[X]3-sPEG4-NH2] | 40.4 | 42.4 | 43.5 | 42.5 | >64 | >64 | 16 (≈ 6.15 µM) | 32 (≈ 12.3 µM) | >64 | 9 | 44 | 450
NCCCC[C@H](NC(=O)CCN(Cc1ccc(F)cc1)C(=O)[C@H](CCCCN)NC(=O)COCCNC(=O)CCN(Cc1ccc(F)cc1)C(=O)[C@H](CCCCN)NC(=O)CCN(Cc1ccc(F)cc1)C(=O)[C@H](CCCCN)NC(=O)COCCNC(=O)CCN(Cc1ccc(F)cc1)C(=O)[C@H](CCCCN)NC(=O)CCN(Cc1ccc(F)cc1)C(=O)[C@@H](N)CCCCN)C(=O)N(CCC(N)=O)Cc1ccc(F)cc1 [Compound 15, H-[X]2-sPEG1-[X]2-sPEG1-[X]2-NH2] | 39.0 | 41.1 | 41.4 | 41.2 | >64 | 32 to 64 | 8 (≈ 3.88 µM) | 4 (≈ 1.94 µM) | >64 | 4.8 | 26 | 568
NCCCC[C@H](NC(=O)CCN(Cc1ccc(F)cc1)C(=O)[C@H](CCCCN)NC(=O)COCCOCCNC(=O)CCN(Cc1ccc(F)cc1)C(=O)[C@H](CCCCN)NC(=O)CCN(Cc1ccc(F)cc1)C(=O)[C@H](CCCCN)NC(=O)COCCOCCNC(=O)CCN(Cc1ccc(F)cc1)C(=O)[C@H](CCCCN)NC(=O)CCN(Cc1ccc(F)cc1)C(=O)[C@@H](N)CCCCN)C(=O)N(CCC(N)=O)Cc1ccc(F)cc1 [Compound 16, H-[X]2-sPEG2-[X]2-sPEG2-[X]2-NH2] | 39.4 | 41.5 | 41.9 | 41.6 | >64 | 32 to 64 | 8 (≈ 3.72 µM) | 4 (≈ 1.86 µM) | 32 to 64 | 5.7 | 27 | 687
